Experimental data taken from patent US8501737B2, “Piperazinyl-, piperidinyl- and morpholinyl-derivatives as novel inhibitors of histone deacetylase” (Janssen Pharmaceutica N.V., priority 2002, dated 2013).
Values after ≈ are worked out from the molar mass of the structure shown. Read-outs that look alike come from different tables or passages of the source.

Legend:
[1] = target: histone deacetylase (HeLa nuclear extracts); test: In vitro assay for inhibition of histone deacetylase (HeLa nuclear extracts, radiolabeled histone H4 peptide substrate); assay type: biochemical; details: HeLa nuclear extracts 60 μg/ml, 30 min, pH 7.4
Method: The in vitro assay for inhibition of histone deacetylase (see example C.1) measures the inhibition of HDAC enzymatic activity obtained with the compounds of formula (I).
HeLa nuclear extracts (supplier: Biomol) were incubated at 60 μg/ml with 2×10^−8 M of radiolabeled peptide substrate. As a substrate for measuring HDAC activity a synthetic peptide, i.e. the amino acids 14-21 of histone H4, was used. The substrate is biotinylated at the NH2-terminal part with a 6-aminohexanoic acid spacer, and is protected at the COOH-terminal part by an amide group and specifically [^3H]-acetylated at lysine 16. The substrate, biotin-(6-aminohexanoic)Gly-Ala-([^3H]-acetyl-Lys-Arg-His-Arg-Lys-Val-NH2), was added in a buffer containing 25 mM Hepes, 1 M sucrose, 0.11 mg/ml BSA and 0.01% Triton X-100 at pH 7.4. After 30 min the deacetylation reaction was terminated by the addition of HCl and acetic acid. (final concentration 0.035 mM and 3.8 mM respectively). After stopping the reaction, the free ^3H-acetate was extracted with ethylacetate. After mixing and centrifugation, the radioactivity in an aliquot of the upper (organic) phase was counted in a β-counter.
For each experiment, controls (containing HeLa nuclear extract and DMSO without compound), a blank incubation (containing DMSO but no HeLa nuclear extract or compound) and samples (containing compound dissolved in DMSO and HeLa nuclear extract) were run in parallel. In first instance, compounds were tested at a concentration of 10^−5M. […] In each test the blank value was subtracted from both the control and the sample values. The control sample represented 100% of substrate deactylation. For each sample the radioactivity was expressed as a percentage of the mean value of the controls. […] Herein the effects of test compounds are expressed as pIC50 (the negative log value of the IC50-value).

[2] = system: human A2780 ovarian carcinoma cells; test: Antiproliferative activity on A2780 cells (MTT-based assay); assay type: cell-based; details: four days of incubation; for IC50: Homo sapiens, A2780, 96 h, read-out: Cellular activity pIC50 (converted)
Method: Cellular activity of the compounds of formula (I) was determined on A2780 tumour cells using a […] assay for cell toxicity or survival (Mosmann Tim, Journal of Immunological Methods 65: 55-63, 1983)(see example C.2).
All compounds tested were dissolved in DMSO and further dilutions were made in culture medium. Final DMSO concentrations never exceeded 0.1% (v/v) in cell proliferation assays, Controls contained A2780 cells and DMSO without compound and blanks contained DMSO but no cells. MTT was dissolved at 5 mg/ml in PBS. A glycine buffer comprised of 0.1 M glycine and 0.1 M NaCl buffered to pH 10.5 with NaOH (1 N) was prepared (all reagents were from Merck).
The human A2780 ovarian carcinoma cells (a kind gift from Dr. T. C. Hamilton [Fox Chase Cancer Centre, Pennsylvania, USA]) were cultured in RPMI 1640 medium supplemented with 2 mM L-glutamine, 50 μg/ml gentamicin and 10% fetal calf serum. Cells were routinely kept as monolayer cultures at 37° C. in a humidified 5% CO2 atmosphere. Cells were passaged once a week using a trypsin/EDTA solution at a split ratio of 1:40. All media and supplements were obtained from Life Technologies. Cells were free of mycoplasma contamination as determined using the Gen-Probe Mycoplasma Tissue Culture kit (supplier: BioMérieux).
Cells were seeded in NUNC™ 96-well culture plates (Supplier: Life Technologies) and allowed to adhere to the plastic overnight. Densities used for plating were 1500 cells per well in a total volume of 200 μl medium. After cell adhesion to the plates, medium was changed and drugs and/or solvents were added to a final volume of 200 μl. Following four days of incubation, medium was replaced by 200 μl fresh medium and cell density and viability was assessed using an MTT-based assay. To each well, 25 μl MTT solution was added and the cells were further incubated for 2 hours at 37° C. The medium was then carefully aspirated and the blue MTT-formazan product was solubilized by addition of 25 μl glycine buffer followed by 100 μl of DMSO. […] Within an experiment, the results for each experimental condition are the mean of 3 replicate wells. For initial screening purposes, compounds were tested at a single fixed concentration of 10^−6 M. For active compounds, the experiments were repeated to establish full concentration-response curves. For each experiment, controls (containing no drug) and a blank incubation (containing no cells or drugs) were run in parallel. The blank value was subtracted from all control and sample values. For each sample, the mean value for cell growth (in absorbance units) was expressed as a percentage of the mean value for cell growth of the control. […] Herein the effects of test compounds are expressed as pIC50 (the negative log value of the IC50-value).

[3] = Kinetic solubility in aqueous media (nephelometer turbidity); assay type: physicochemical; details: aqueous buffer, kinetic from dmso stock; phosphate citrate buffer pH 7.4, dilution from 5 mM DMSO stock; read-out: Solubility Score
Method: Kinetic solubility in aqueous media measures the ability of a compound to stay in aqueous solution upon dilution (see example C.3).
DMSO-stock solutions are diluted with a single aqueous buffer solvent in 3 consecutive steps. For every dilution turbidity is measured with a nephelometer.
In the first dilution step, 10 μl of a concentrated stock-solution of the active compound, solubilized in DMSO (5 mM), was added to 100 μl phosphate citrate buffer pH 7.4 and mixed. In the second dilution step, an aliquot (20 μl) of the first dilution step was further dispensed in 100 μl phosphate citrate buffer pH 7.4 and mixed. Finally, in the third dilution step, a sample (20 μl) of the second dilution step was further diluted in 100 μl phosphate citrate buffer pH 7.4 and mixed. All dilutions were performed in 96-well plates. Immediately after the last dilution step the turbidity of the three consecutive dilution steps were measured with a nephelometer. Dilution was done in triplicate for each compound to exclude occasional errors. Based on the turbidity measurements a ranking is performed into 3 classes. Compounds with high solubility obtained a score of 3 and for this compounds the first dilution is clear. Compounds with medium solubility obtained a score of 2. For these compounds the first dilution is unclear and the second dilution is clear. […] The solubility of 11 compounds was measured.

[4] = not given; remark: listed apart in the source

O=C(NO)c1cnc(N2CCCC(CNS(=O)(=O)c3ccc4ccccc4c3)C2)nc1 (centres unmarked) [Compound 10]
Enzyme activity pIC50 [1]: 7.65
melting point: 210 °C
IC50 [2]: 1.08 µM
solubility [3]: > 454 µM

O=C(NO)c1cnc(N2CCCC(NS(=O)(=O)c3ccc4ccccc4c3)C2)nc1 (centres unmarked) [Compound 14]
IC50 [2]: 0.243 µM

CCCO [propanol]
% metabolism ([4]; after 15 min incubation with microsomes (1 mg/ml), compound 5 μM, 37 degrees Celsius): 25%

CN1CCN(c2ncc(C(=O)NO)cn2)CC1CNS(=O)(=O)c1ccc2ccccc2c1 (centres unmarked) [Compound 13]
Enzyme activity pIC50 [1]: 7.361
IC50 [2]: 1.69 µM

COc1cc(N)c(Cl)cc1C(=O)NC1CCN(CCCOc2ccc(F)cc2)CC1OC (centres unmarked) [Cisapride]
% metabolism ([4]; human, 15 min, 5 μM): 45%

O=C(NO)c1cnc(N2CCO[C@H](CNS(=O)(=O)c3ccc(-c4ccccc4)cc3)C2)nc1 [Compound 1]
Enzyme activity pIC50 [1]: 7.723
melting point: 164 °C
Cellular activity pIC50 [2]: 6.232

O=C(NO)c1cnc(N2CCO[C@H](CNS(=O)(=O)c3ccc(-c4ccccc4)cc3)C2)nc1 [Compound 12]
Enzyme activity pIC50 [1]: 7.528
IC50 [2]: 0.977 µM
solubility [3]: 75.8 to 454 µM (≈ 35.6 to 213 µg/mL)

O=C(NO)c1cnc(N2CCOC(CNC(=O)c3ccc(-c4ccccc4)cc3)C2)nc1 (centres unmarked) [Compound 8]
Enzyme activity pIC50 [1]: 7.487
melting point: 290 °C
IC50 [2]: 0.0365 µM
solubility [3]: > 454 µM

O=C(NO)c1cnc(N2CCN(Cc3ccccc3)C(CNS(=O)(=O)c3ccc4ccccc4c3)C2)nc1 (centres unmarked) [Compound 3]
Enzyme activity pIC50 [1]: 7.647
melting point: 135 °C
IC50 [2]: 2.4 µM
solubility [3]: < 75.8 µM

O=C(NO)c1ccc(N2CCOC(CNS(=O)(=O)c3ccc4ccccc4c3)C2)nc1 (centres unmarked) [Compound 7]
Enzyme activity pIC50 [1]: 7.323
melting point: 157 °C
IC50 [2]: 2.04 µM
solubility [3]: > 454 µM

O=C(NO)c1cnc(N2CCOC(CNC(=O)c3ccc4ccccc4c3)C2)nc1 (centres unmarked) [Compound 9]
Enzyme activity pIC50 [1]: 7.609
melting point: 246 °C
IC50 [2]: > 10 µM
solubility [3]: > 454 µM

O=C(NO)c1cnc(N2CCOC(CNS(=O)(=O)c3ccc4ccccc4c3)C2)nc1 (centres unmarked) [Compound 6]
Enzyme activity pIC50 [1]: 7.421
melting point: 179 °C
IC50 [2]: 0.413 µM
solubility [3]: > 454 µM

O=C(NO)c1cnc(N2CC[C@H](O)[C@H](CNS(=O)(=O)c3ccc4ccccc4c3)C2)nc1 [Compound 11]
Enzyme activity pIC50 [1]: 7.553
melting point: 176 °C
IC50 [2]: > 10 µM
solubility [3]: > 454 µM

O=C(NO)c1cnc(N2CCOC(CNS(=O)(=O)c3ccc(-c4ccccc4)cc3)C2)nc1 (centres unmarked) [Compound 4]
Enzyme activity pIC50 [1]: 8.097
melting point: 163 °C
IC50 [2]: 0.565 µM
solubility [3]: < 75.8 µM

O=C(NO)c1ccc(N2CCOC(CNS(=O)(=O)c3ccc(-c4ccccc4)cc3)C2)nc1 (centres unmarked) [Compound 5]
Enzyme activity pIC50 [1]: 7.549
melting point: 210 °C
IC50 [2]: 2.05 µM

O=C(NO)c1cnc(N2CCNC(CNS(=O)(=O)c3ccc4ccccc4c3)C2)nc1 (centres unmarked) [Compound 2]
Enzyme activity pIC50 [1]: 8.059
melting point: 243 °C
IC50 [2]: 2.04 µM
solubility [3]: < 75.8 µM
